Results taken from patent US20220089638A1, “DITHIOCARBAMATE STAPLED PEPTIDES AND METHODS OF MAKING AND USE THEREOF” (UNIVERSITY OF MARYLAND, BALTIMORE, priority 2019, published 2022).
Where a SMILES comes first, the peptide text is derived from it. Bridges are numbered along the chain shown (N, C = ends). Where no end group is shown, it is not given here.

T1: cathepsin G (Homo sapiens, UniProt P08311)
T1 sequence (P08311 21-244): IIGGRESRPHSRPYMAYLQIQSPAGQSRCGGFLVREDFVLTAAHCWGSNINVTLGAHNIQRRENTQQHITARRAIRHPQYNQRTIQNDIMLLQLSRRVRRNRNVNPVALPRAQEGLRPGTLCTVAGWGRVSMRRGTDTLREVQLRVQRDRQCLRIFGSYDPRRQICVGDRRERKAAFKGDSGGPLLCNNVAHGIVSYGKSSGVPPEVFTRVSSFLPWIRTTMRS

T2: synthetic 24-108MDMX (p53-binding domain of MDMX) (UniProt O15151 24-108)
T2 sequence (looked up): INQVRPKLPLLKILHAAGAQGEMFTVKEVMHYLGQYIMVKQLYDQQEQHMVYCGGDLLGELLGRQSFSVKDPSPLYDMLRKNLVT


Key:
[1] = Circular dichroism spectroscopy, percent α-helix; assay type: physicochemical; conditions: CD spectroscopy
Excerpt: Circular Dichroism (CD) Spectroscopy.

[2] = 25° C., PBS buffer, glutathione 10 mM, over 24 h
[3] = target: T1, cathepsin G; assay: Proteolytic stability in the presence of cathepsin G; assay type: in vitro ADME; conditions: cathepsin G (25 μg/ml) in RPMI 1640; 100 μM peptide, 25 μg/mL cathepsin G, cell culture medium, room temperature
[4] = target: T3, synthetic 25-109MDM2 (p53-binding domain of MDM2) (UniProt Q00987 25-109); assay: FP competition: the peptide displaces TAMRA-PMI (10 nM) from MDM2 (50 nM)
T3 construct: range 25-109

[5] = target: T2, synthetic 24-108MDMX (p53-binding …); assay: SPR competition in solution: MDMX at 100 nM incubated with the peptide, free MDMX read on a chip with immobilised 15-29p53
[6] = target: T3, synthetic 25-109MDM2 (p53-binding …); assay: FP competition: the peptide displaces TAMRA-PMI (10 nM) from MDM2 (50 nM) [left panel]
[7] = target: T3, synthetic 25-109MDM2 (p53-binding …); assay: FP competition: the peptide displaces TAMRA-PMI (10 nM) from MDM2 (50 nM); remark: listed apart in the source
[8] = target: T2, synthetic 24-108MDMX (p53-binding …); assay: SPR competition in solution: MDMX at 100 nM incubated with the peptide, free MDMX read on a chip with immobilised 15-29p53; remark: listed apart in the source
[9] = target: T3, synthetic 25-109MDM2 (p53-binding …); assay: SPR competition in solution: MDM2 at 25 nM incubated with the peptide, free MDM2 read on a chip with immobilised 15-29p53
[10] = target: T3, synthetic 25-109MDM2 (p53-binding …); assay: as above; remark: listed apart in the source
[11] = target: T2, synthetic 24-108MDMX (p53-binding …); assay: FP competition: the peptide displaces TAMRA-PMI (10 nM) from MDMX (50 nM) [right panel]
[12] = target: T2, synthetic 24-108MDMX (p53-binding …); assay: FP competition: the peptide displaces TAMRA-PMI (10 nM) from MDMX (50 nM)

Molecule | α-helix (%) ([1]; Table 3) | α-helix (%) ([1]; Table 7) | other results
CC(=O)N[C@H](C(=O)N[C@@H](CO)C(=O)N[C@@H](Cc1ccccc1)C(=O)N[C@@H](C)C(=O)N[C@@H](CCC(=O)O)C(=O)N[C@@H](Cc1ccc(O)cc1)C(=O)N[C@@H](Cc1c[nH]c2ccccc12)C(=O)N[C@@H](CC(N)=O)C(=O)N[C@@H](CC(C)C)C(=O)N[C@@H](CC(C)C)C(=O)N[C@@H](CO)C(=O)N1CCC[C@H]1C(N)=O)[C@@H](C)O [PMI-0, reference compound] (Ac-TSFAEYWNLLSP-NH2) | 0% | 9.77% | 
CC(=O)N[C@H](C(=O)N[C@@H](CO)C(=O)N[C@@H](Cc1ccccc1)C(=O)N[C@@H](C)C(=O)N[C@@H](CCC(=O)O)C(=O)N[C@@H](Cc1ccc(O)cc1)C(=O)N[C@@H](Cc1c[nH]c2ccccc12)C(=O)N[C@H]1CCCCNC(=S)SC[C@@H](C(N)=O)NC(=O)[C@H](CO)NC(=O)[C@H](CC(C)C)NC(=O)[C@H](CC(C)C)NC1=O)[C@@H](C)O [PMI(8,12)-a] | 33% | 43.3% | breakdown of the DTC structure in reduced glutathione [2]: no apparent breakdown of the DTC structure was observed over 24 h; half-life at 100 μM [3]: ~8 h
CC(=O)N[C@H]1CCCCNC(=S)SC[C@@H](C(=O)N[C@@H](Cc2ccc(O)cc2)C(=O)N[C@@H](Cc2c[nH]c3ccccc23)C(=O)N[C@@H](CC(N)=O)C(=O)N[C@@H](CC(C)C)C(=O)N[C@@H](CC(C)C)C(=O)N[C@@H](CO)C(=O)N2CCC[C@H]2C(N)=O)NC(=O)[C@H](C)NC(=O)[C@H](Cc2ccccc2)NC(=O)[C@H](CO)NC1=O [PMI(1,5)-a] | 36% | 6.50% | 
CC(=O)N[C@H](C(=O)N[C@@H](CO)C(=O)N[C@@H](Cc1ccccc1)C(=O)N[C@@H](C)C(=O)N[C@@H](CCC(=O)O)C(=O)N[C@@H](Cc1ccc(O)cc1)C(=O)N[C@@H](Cc1c[nH]c2ccccc12)C(=O)N[C@H]1CSC(=S)NCCCC[C@@H](C(N)=O)NC(=O)[C@H](CO)NC(=O)[C@H](CC(C)C)NC(=O)[C@H](CC(C)C)NC1=O)[C@@H](C)O [PMI(8,12)-b] | 0% | 0.23% | 
CC(=O)N[C@H](C(=O)N[C@H]1CCCCNC(=S)SC[C@@H](C(=O)N[C@@H](Cc2c[nH]c3ccccc23)C(=O)N[C@@H](CC(N)=O)C(=O)N[C@@H](CC(C)C)C(=O)N[C@@H](CC(C)C)C(=O)N[C@@H](CO)C(=O)N2CCC[C@H]2C(N)=O)NC(=O)[C@H](CCC(=O)O)NC(=O)[C@H](C)NC(=O)[C@H](Cc2ccccc2)NC1=O)[C@@H](C)O [PMI(2,6)-a] | 5.9% | 15.3% | 
CC(=O)N[C@H](C(=O)N[C@@H](CO)C(=O)N[C@@H](Cc1ccccc1)C(=O)N[C@@H](C)C(=O)N[C@H]1CSC(=S)NCCCC[C@@H](C(=O)N[C@@H](CC(C)C)C(=O)N[C@@H](CO)C(=O)N2CCC[C@H]2C(N)=O)NC(=O)[C@H](CC(N)=O)NC(=O)[C@H](Cc2c[nH]c3ccccc23)NC(=O)[C@H](Cc2ccc(O)cc2)NC1=O)[C@@H](C)O [PMI(5,9)-b] | 0% | 9.58% | 
CC(=O)N[C@H](C(=O)N[C@H]1CSC(=S)NCCCC[C@@H](C(=O)N[C@@H](Cc2c[nH]c3ccccc23)C(=O)N[C@@H](CC(N)=O)C(=O)N[C@@H](CC(C)C)C(=O)N[C@@H](CC(C)C)C(=O)N[C@@H](CO)C(=O)N2CCC[C@H]2C(N)=O)NC(=O)[C@H](CCC(=O)O)NC(=O)[C@H](C)NC(=O)[C@H](Cc2ccccc2)NC1=O)[C@@H](C)O [PMI(2,6)-b] | 3.1% | 4.81% | 
CC(=O)N[C@H](C(=O)N[C@@H](CO)C(=O)N[C@@H](Cc1ccccc1)C(=O)N[C@H]1CSC(=S)NCCCC[C@@H](C(=O)N[C@@H](CC(C)C)C(=O)N[C@@H](CC(C)C)C(=O)N[C@@H](CO)C(=O)N2CCC[C@H]2C(N)=O)NC(=O)[C@H](Cc2c[nH]c3ccccc23)NC(=O)[C@H](Cc2ccc(O)cc2)NC(=O)[C@H](CCC(=O)O)NC1=O)[C@@H](C)O [PMI(4,8)-b] | 5.6% | 9.15% | 
CC(=O)N[C@H](C(=O)N[C@@H](CO)C(=O)N[C@@H](Cc1ccccc1)C(=O)N[C@@H](C)C(=O)N[C@H]1CCCCNC(=S)SC[C@@H](C(=O)N[C@@H](CC(C)C)C(=O)N[C@@H](CO)C(=O)N2CCC[C@H]2C(N)=O)NC(=O)[C@H](CC(N)=O)NC(=O)[C@H](Cc2c[nH]c3ccccc23)NC(=O)[C@H](Cc2ccc(O)cc2)NC1=O)[C@@H](C)O [PMI(5,9)-a] | 0% | 6.88% | 
CC(=O)N[C@H](C(=O)N[C@@H](CO)C(=O)N[C@@H](Cc1ccccc1)C(=O)N[C@H]1CCCCNC(=S)SC[C@@H](C(=O)N[C@@H](CC(C)C)C(=O)N[C@@H](CC(C)C)C(=O)N[C@@H](CO)C(=O)N2CCC[C@H]2C(N)=O)NC(=O)[C@H](Cc2c[nH]c3ccccc23)NC(=O)[C@H](Cc2ccc(O)cc2)NC(=O)[C@H](CCC(=O)O)NC1=O)[C@@H](C)O [PMI(4,8)-a] | 25% | 39.3% | 
CC(=O)N[C@H]1CSC(=S)NCCCC[C@@H](C(=O)N[C@@H](Cc2ccc(O)cc2)C(=O)N[C@@H](Cc2c[nH]c3ccccc23)C(=O)N[C@@H](CC(N)=O)C(=O)N[C@@H](CC(C)C)C(=O)N[C@@H](CC(C)C)C(=O)N[C@@H](CO)C(=O)N2CCC[C@H]2C(N)=O)NC(=O)[C@H](C)NC(=O)[C@H](Cc2ccccc2)NC(=O)[C@H](CO)NC1=O [PMI(1,5)-b] | 7.6% | 8.38% | 
QETFCDLWKLLP (peptide, UniProt P04637 16-27, looked up, bridge 5-9, range 16-27; also called stapled p53 peptide) [^DTCp53 (DTC-stapled 16-27p53, Ser20Cys, staple Cys20-Lys24)] |  |  | IC50 (read off the curve) [4]: ~300 nM; IC50 (read off the curve) [5]: ~100 nM
Ac-TSFAEYWKLLSC-NH2 (bridge 8-12) [PMI(8,12)-a] |  |  | IC50 (read off the curve) [6]: ~30 nM; IC50 (read off the curve) [7]: ~30 nM; IC50 (read off the curve) [8]: 50 to 60 nM; IC50 (read off the curve) [9]: ~10 nM; IC50 (read off the curve) [10]: ~10 nM
Ac-TSFKEYWCLLSP-NH2 (bridge 4-8, Co-crystal with MDMX is PDB 5VK1; also called PMI(4, 8)-1) [PMI(4,8)-a] |  |  | IC50 (read off the curve) [11]: ~30 nM; IC50 (read off the curve) [6]: ~40 nM; IC50 (read off the curve) [7]: ~40 nM; IC50 (read off the curve) [12]: ~30 nM; IC50 (read off the curve) [8]: ~50 nM; IC50 (read off the curve) [9]: ~10 nM; IC50 (read off the curve) [10]: ~10 nM
